# Assay results from patent US5192760A, “3-carbalkoxyamino-5-(alpha-aminopropionyl)-5H-dibenz[b,f]azepines and method for their making” (priority 1989, dated 1993).
# Read-outs that look alike come from different tables or passages of the source.
# Columns and labels:
# in vivo [1] = assay: in vivo; set-up: species or system male or female Wistar rats; settings: Wistar rat, iv. in tail vein, p=0.05 confidence interval in parentheses
# Text: LD50 iv. is the lethal dose in mg/kg body weight for 50% of the experimental animals of an orientating acute toxicity test on male or female Wistar rats of our own breed, iv. administration in the tail vein, 3-4 dosages, 10 animals per group. Data analyzed by the Probit regression analysis with a confidence interval of p=0.05 (values in parentheses).
# Aconitine (rat) = assay: animal or person; format: in vivo, female Wistar rats; settings: Rattus norvegicus
# Method: (§1) ED73 iv. and po. are the dose in mg/kg, body weight which inhibits aconitine in female Wistar rats after iv. or po. administration of the test substance up to the occurrence of isolated ventricular extrasystolae. The procedure is also described by K. Femmer et al., in Pharmazie, vol. 31, page 36 (1976). The test substances are administered 2 minutes before the aconitine if given iv., and 60 minutes before the aconitine if given orally. The data is analyzed by the Probit regression analysis with a confidence interval of p=0.05 (values in parentheses).
# (§2) Q1 is the ratio of […]. to determine the absorption, and Q2 is the ratio of LD50 iv. /ED73 iv. to determine the therapeutic breadth.
# in vivo [2] = format: in vivo, female Wistar rats; settings: in vivo
# Method: as §1, §2
# [3] = ratio of ED73 po. to ED73 iv., rat aconitine, read-out: Q1 (ED73 po. /ED73 iv.), absorption ratio
# [4] = ratio of LD50 iv. to ED73 iv., rat, read-out: Q2 (LD50 iv. /ED73 iv.), therapeutic breadth
Compound,LD50 (in vivo [1]) [mg/kg],"ED73 (Aconitine (rat); iv, read-out: ED73 iv.) [mg/kg]","ED73 (Aconitine (rat); po, read-out: ED73 p.o.) [mg/kg]",selectivity ratio (in vivo [2]; [3]),selectivity ratio (in vivo [2]; [4]),"ED50 (Aconitine (rat); iv, read-out: ED50 iv. (printed in the ED73 p.o. column)) [mg/kg]"
"CCNC(C)C(=O)N1c2ccccc2CCc2ccc(NC(=O)OCC)cc21.Cl (stereo not drawn) [Test No. 5, 3-carbethoxyamino-5-(α-ethylaminopropionyl)-10,11-dihydro-5H-dibenz[b,f]azepine hydrochloride]",9.3,0.16,7,44,39,
CCNC(C)C(=O)N1c2ccccc2C=Cc2ccc(NC(=O)OCC)cc21 (stereo not drawn) [compound 11],14,0.8,14,18,18,
"CCOC(=O)Nc1ccc2c(c1)N(C(=O)C(C)NC)c1ccccc1CC2 (stereo not drawn) [Test No. 4, 3-Carbethoxyamino-5-(α-methylaminopropionyl)-10,11-dihydro-5H-dibenz[b,f]-azepine]",12,0.12,19,158,100,
"CCOC(=O)Nc1ccc2c(c1)N(C(=O)CCN1CCOCC1)c1ccccc1S2 [Moracizin, reference compound]",,1.1,112,102,10,
CCOC(=O)Nc1ccc2c(c1)N(C(=O)C(C)N1CCOCC1)c1ccccc1CC2 (stereo not drawn) [Test No. 3],> 70,47,> 80,,~2,
"CCOC(=O)Nc1ccc2c(c1)N(C(=O)CN(C)C)c1ccccc1CC2 [Bonnecor, 3carbethoxyamino-5-dimethylaminoacetyl-10,11-dihydro-5H-dibenz[b,f,]azepine, reference compound]",,0.28,5.7,20,39,
COC(=O)Nc1ccc2c(c1)N(C(=O)C(C)NCCO)c1ccccc1CC2 (stereo not drawn) [compound 9],55,4,,,14,
CCOC(=O)Nc1ccc2c(c1)N(C(=O)C(C)N(CC)CC)c1ccccc1CC2 (stereo not drawn) [Test No. 2],12,1.3,11,9,9,
"Cc1cccc(C)c1OCC(C)N (stereo not drawn) [Mexiletin, reference compound]",,15,,,,91
CCOC(=O)Nc1ccc2c(c1)N(C(=O)C(C)N)c1ccccc1CC2 (stereo not drawn) [compound 13],21,0.31,14,45,68,
CCNC(C)C(=O)N1c2ccccc2CCc2ccc(NC(=O)OC(C)C)cc21 (stereo not drawn) [compound 7],10,0.33,20,61,30,
CCCNC(C)C(=O)N1c2ccccc2CCc2ccc(NC(=O)OCC)cc21 (stereo not drawn) [compound 12],2.5,0.16,3.5,22,16,
CNC(C)C(=O)N1c2ccccc2CCc2ccc(NC(=O)OC)cc21 (stereo not drawn) [compound 8],24,0.86,14,16,28,
CCOC(=O)Nc1ccc2c(c1)N(C(=O)C(C)N(C)C)c1ccccc1CC2 (stereo not drawn) [Test No. 1],20,2.4,24,10,8,
CNC(C)C(=O)N1c2ccccc2CCc2ccc(NC(=O)OC(C)C)cc21 (stereo not drawn) [compound 6],21,0.55,12,22,38,
CCOC(=O)Nc1ccc2c(c1)N(C(=O)C(C)NC)c1ccccc1C=C2 (stereo not drawn) [compound 10],14,0.75,4.9,6.5,19,
